# Measurements published in US20220062262A1, “GSNO REDUCTASE INHIBITOR AS AN ADJUNCT THERAPY WITH REMOTE ISCHEMIC CONDITIONING AND THROMBOLYTIC REPERFUSION THERAPIES IN STROKE” (KING ABDULAZIZ UNIVERSITY, priority 2020, published 2022).
# Tested on: PT-stroke (thrombotic occlusion of distal MCA trunk)
# Test: Photothrombotic (PT) model of stroke in aged mice, infarct volume by TTC staining
# Assay type: in vivo
# Method: Aged mice (16 ±1-mo) were subjected to PT-stroke via a novel lateral side surgical approach without craniotomy resulting in the thrombotic occlusion of distal main trunk of MCA. For the purpose, mice were anesthetized with isofluorane, prepared for surgery, and rose Bengal dye (50 mg/kgbwt in 200 uL of 1× sterile PBS) was intravenously (IV) infused. Mice were immediately put on a robotic stereotaxic frame, the head was rotated to face right side up, and the skull was exposed. The distal trunk of MCA was visualized underneath the skull bone (without craniotomy) using a 532 nm laser source (8-mm beam diameter; 4.5 mW) integrated to an ID8-iris (ThorLabs, NJ, USA). The MCA region above the zygomatic arc was exposed with the laser for 20-min from a distance of ˜2-3-mm. Following 20-min laser exposure, thrombotic occlusion of the distal trunk of MCA was confirmed using laser doppler flowmeter showing >60% drop in CBF and finally the lateral side skin wound was closed. All mice under C57/B6 background were bred, housed, used and related experimental procedures were performed in accordance with the approved protocol of Institutional Animal Care and Use Committees (IACUCs) of St. Joseph's Hospital and Medical Center (SJHMC), and Augusta University, Augusta, Ga. Effect of stroke on GSNOR expression/activity was first determined in a clinically relevant partially-humanized TE-stroke, embolic middle cerebral artery occlusion (eMCAo) model in aged (16±1-mo-old) male mice. Next, an effective dose-finding study of GRI therapy (stroke injury size) was performed in aged (16±1-mo-old) male mice in a photothrombotic (PT) model of stroke with the reduction in infarct volume as the primary outcome. The safety and benefits of the best dose of GRI therapy in reducing infarct volume as the primary outcome was also confirmed in reproductively senescent aged (16±1-mo-old) female mice subjected to PT-stroke. To test the benefits of GRI therapy during permanent ischemia, GRI was also tested in adult (14±1-weeks) mice of both sexes subjected to permanent model of middle cerebral artery ligation (pMCAL). All females were ovariectomized at the age of 12-weeks, i.e., 2-weeks prior to stroke surgery. A 2×2 factorial design was adopted [2 Sexes (MALE vs. FEMALE)×2 GRI (NO vs. YES)] such that all 4 groups of both sexes were subjected to pMCAL followed by randomization into two different treatment cohorts: GRI therapy or equal volume of Vehicle treatment. All mice were tested for behavioral outcome on a narrow beam test, relative CBF measurement using laser speckle contrast imaging (LSCI) and infarct volume size. […] Outcome measures such as brain tissue oxygenation (PbtO2), acute inflammatory genes response, neurological deficit, edema as percent (%) swelling and infarct volumes were assessed. […]
compound,measurement,setting,value
"Cc1cc(C(N)=O)ccc1-n1c(CCC(=O)O)ccc1-c1ccc(-n2ccnc2)cc1 [GRI therapy, N6022]",stroke injury (infarct volume) vs vehicle,"aged female mice, 2.5 mg/kg, P<0.05, N=10/gp",effective in reducing the stroke injury significantly
same,neuroprotective effect (absolute infarct volume) across doses,"aged male mice, 1, 2.5, 5.0 and 10 mg/kg IV 1 h after PT-stroke, N=8/gp",dose-dependent neuroprotective effect
same,GRI dose from which the neuroprotective effect plateaus,"aged male mice, IV 1 h after PT-stroke",> 2.5 mg/kg
same,infarct/injury progression vs vehicle (TTC),"aged male mice, IV 1 h after PT-stroke, P<0.0001",significantly protected against the stroke and prevented the infarct/injury progression
